Literature values, collected in patent EP0859828B2, “DELIVERY SYSTEMS” (THE PROCTER & GAMBLE COMPANY, priority 1995, dated 1997).

Details: 25°C; cobalt pentaamine catalysts complexed with the named ligand

Compound | base hydrolysis rates (kOH) [M⁻¹ s⁻¹]
CC(=O)O [acetate] | 0.00096
oxalate | 0.00025
